Read-outs that look alike come from different tables or passages of the source.
How the values were obtained:
[1] = in vitro; conditions: monkey
[2] = tested on: CV-A24; experiment: microbe, parasite or virus in culture; format: cell-based, coxsackievirus A24; conditions: Enterovirus C
[3] = in vitro; conditions: human
[4] = tested on: CV-B3; experiment: microbe, parasite or virus in culture; format: cell-based, coxsackievirus B3; conditions: Enterovirus B
[5] = tested on: PV-1; experiment: microbe, parasite or virus in culture; format: cell-based, poliovirus 1; conditions: Enterovirus C
[6] = tested on: EV-A71; experiment: microbe, parasite or virus in culture; format: cell-based, enterovirus A71; conditions: Enterovirus A
[7] = tested on: CV-B3; experiment: microbe, parasite or virus in culture; format: cell-based, coxsackievirus B3; conditions: Enterovirus B, CVB3, BGM
[8] = tested on: representative EVs and RVs; format: cell-based
[9] = tested on: HRV-B14; experiment: microbe, parasite or virus in culture; format: cell-based, human rhinovirus; conditions: Human rhinovirus sp.
[10] = in vitro; conditions: human; remark: listed apart in the source
[11] = tested on: HeLa R19 cells
[12] = tested on: HRV-A2; experiment: microbe, parasite or virus in culture; format: cell-based, human rhinovirus; conditions: Human rhinovirus sp., HRVA2, HeLa R19, read-out: EC50 HRV-A2
[13] = tested on: EV-D68; experiment: microbe, parasite or virus in culture; format: cell-based, enterovirus D68; conditions: Enterovirus D
[14] = tested on: CV-B3; experiment: microbe, parasite or virus in culture; format: cell-based, coxsackievirus B3; conditions: for EC50: Enterovirus B
[15] = CVA24, HeLa R19, read-out: EC50 Exp1
[16] = CVA24, HeLa R19, read-out: EC50 Exp2
[17] = CVB3, HAP1, read-out: EC50 Hap1 Average
[18] = CVB3, HAP1, read-out: Exp 1 EC50 Hap1
[19] = CVB3, HAP1, read-out: Exp 2 EC50 Hap1
[20] = EVA71, HeLa R19, read-out: EC50 EV-A71
[21] = EVA71, HeLa R19, read-out: EC50 Exp1
[22] = EVA71, HeLa R19, read-out: EC50 Exp2
[23] = HRVB14, HeLa R19, read-out: EC50 HRV-B14
[24] = EVD68, HeLa R19, read-out: EC50 EV-D68
[25] = EVD68, HeLa R19, read-out: EC50 Exp1
[26] = EVD68, HeLa R19, read-out: EC50 Exp2
[27] = CVB3, HeLa R19, read-out: CV-B3 EC50 Average
[28] = CVB3, HeLa R19, read-out: CV-B3 Exp 1 EC50
[29] = CVB3, HeLa R19, read-out: CV-B3 Exp2 EC50
[30] = CVB3, HeLa R19, read-out: Exp 1 EC50 HelaR19
[31] = CVB3, HeLa R19, read-out: Exp 2 EC50 HelaR19

SMILES: O=C(c1ccco1)N(Cc1ccccc1)c1ccccc1 [Compound 19a, N-Benzyl-N-phenylfuran-2-carboxamide]
- CC50 ([1]; CC50): > 100000 nM
- CC50 ([1]; CC50 BGM Average): > 100000 nM
- CC50 ([1]; Exp 1 CC50 BGM): > 100000 nM
- CC50 ([1]; Exp 2 CC50 BGM): > 100000 nM
- EC50 ([2]; CVA24, HeLa R19, read-out: EC50 CV-A24): 21480 ± 30 nM
- EC50 [2, 15]: 21500 nM
- EC50 [2, 16]: 21400 nM
- CC50 ([3]; CC50 Average): > 30000 nM
- CC50 ([3]; CC50 HelaR19 Average): > 100000 nM
- CC50 ([3]; Exp 1 CC50): > 30000 nM
- CC50 ([3]; Exp 1 CC50 HelaR19): > 100000 nM
- CC50 ([3]; Exp2 CC50): > 30000 nM
- CC50 ([3]; Exp 2 CC50 HelaR19): > 100000 nM
- EC50 [4, 17]: 730 nM
- EC50 [4, 18]: 480 nM
- EC50 [4, 19]: 970 nM
- EC50 ([5]; HeLa R19, read-out: EC50 Exp1): 31500 nM
- EC50 ([5]; HeLa R19, read-out: EC50 Exp2): 33600 nM
- EC50 ([5]; HeLa R19, read-out: EC50 PV-1): 32600 ± 1080 nM
- EC50 [6, 20]: 3500 ± 310 nM
- EC50 [6, 21]: 3190 nM
- EC50 [6, 22]: 3800 nM
- EC50 ([7]; read-out: EC50 BGM Average): 1840 nM
- EC50 ([7]; read-out: Exp 1 EC50 BGM): 1900 nM
- EC50 ([7]; read-out: Exp 2 EC50 BGM): 1770 nM
- spectrum of antiviral activity (in words) [8]: anti-EV activity but not anti-RV activity
- EC50 [9, 23]: > 30000 nM
- CC50 ([10]; CC50): > 100000 nM
- CC50 ([10]; CC50 Hap1 Average): > 100000 nM
- CC50 ([10]; Exp 1 CC50 Hap1): > 100000 nM
- CC50 ([10]; Exp 2 CC50 Hap1): > 100000 nM
- cytotoxicity (in words) [11]: did not show any cytotoxicity
- EC50 [12]: > 30000 nM
- EC50 [13, 24]: 1340 ± 450 nM
- EC50 [13, 25]: 1790 nM
- EC50 [13, 26]: 890 nM
- increase or decrease of antiviral activity against CV-B3 [14]: less than 3 fold
- EC50 [14, 27]: 910 nM
- EC50 [14, 28]: 880 nM
- EC50 [14, 29]: 940 nM
- EC50 ([14]; CVB3, HeLa R19, read-out: EC50 HelaR19 Average): 1620 nM
- EC50 [14, 30]: 1250 nM
- EC50 [14, 31]: 1980 nM

SMILES: Cc1ccc(CN(C(=O)c2ccco2)c2ccccc2)cc1 [Compound 19g, N-(4-Methylbenzyl)-N-phenylfuran-2-carboxamide]
- CC50 ([1]; CC50): > 100000 nM
- CC50 ([1]; CC50 BGM Average): > 100000 nM
- CC50 ([1]; Exp 1 CC50 BGM): > 100000 nM
- CC50 ([1]; Exp 2 CC50 BGM): > 100000 nM
- EC50 [2, 15]: 9290 nM
- EC50 [2, 16]: 11000 nM
- CC50 ([3]; CC50 Average): > 30000 nM
- CC50 ([3]; CC50 HelaR19 Average): > 100000 nM
- CC50 ([3]; Exp 1 CC50): > 30000 nM
- CC50 ([3]; Exp 1 CC50 HelaR19): > 100000 nM
- CC50 ([3]; Exp2 CC50): > 30000 nM
- CC50 ([3]; Exp 2 CC50 HelaR19): > 100000 nM
- EC50 [4, 17]: 2380 nM
- EC50 [4, 18]: 2080 nM
- EC50 [4, 19]: 2680 nM
- EC50 ([5]; HeLa R19, read-out: EC50 Exp1): 16500 nM
- EC50 ([5]; HeLa R19, read-out: EC50 Exp2): 18500 nM
- EC50 ([5]; HeLa R19, read-out: EC50 PV-1): 17500 ± 1000 nM
- EC50 [6, 20]: 600 ± 140 nM
- EC50 [6, 21]: 460 nM
- EC50 [6, 22]: 730 nM
- EC50 [7]: 1700 ± 260 nM
- EC50 ([7]; read-out: EC50 BGM Average): 1690 nM
- EC50 ([7]; read-out: Exp 1 EC50 BGM): 1950 nM
- EC50 ([7]; read-out: Exp 2 EC50 BGM): 1440 nM
- spectrum of antiviral activity (in words) [8]: anti-EV activity but not anti-RV activity
- EC50 ([9]; HRVB14, HeLa R19, read-out: EC50 Average): 12600 nM
- EC50 ([9]; HRVB14, HeLa R19, read-out: EC50 Exp1): 13600 nM
- EC50 ([9]; HRVB14, HeLa R19, read-out: EC50 Exp2): 11500 nM
- EC50 [9, 23]: 12500 ± 1050 nM
- CC50 ([10]; CC50): > 100000 nM
- CC50 ([10]; CC50 Hap1 Average): > 100000 nM
- CC50 ([10]; Exp 1 CC50 Hap1): > 100000 nM
- CC50 ([10]; Exp 2 CC50 Hap1): > 100000 nM
- cytotoxicity (in words) [11]: did not show any cytotoxicity
- EC50 [12]: > 30000 nM
- EC50 ([13]; EVD68, HeLa R19, read-out: EC50 Average): 1480 nM
- EC50 [13, 24]: 1490 ± 80 nM
- EC50 [13, 25]: 1560 nM
- EC50 [13, 26]: 1410 nM
- effect of the substitution on antiviral activity against CV-B3 (in words) [14]: only marginally affected antiviral activity
- EC50 [14, 27]: 880 nM
- EC50 [14, 28]: 860 nM
- EC50 [14, 29]: 890 nM
- EC50 [14, 30]: 1020 nM
- EC50 [14, 31]: 1690 nM

From article PMC7673538 (PLoS Biology, 2020)
